The record followed here is ChEMBL document CHEMBL1130492 (Bioorg Med Chem Lett, 1997).

Data set [1] is filed under the species Rattus norvegicus. Kind of data set: Percent of radioactive dose in urine and feces excreted in 0-24 hr by rats; NA is <10% inhibition at 1 uM for binding data. Type of data set: ADME, organism-based. As to conditions: in vivo.
A further data set deals with D(2) dopamine receptor (Rattus norvegicus, UniProt P61169). Kind of data set: In vitro ability to displace Dopamine D2 receptor binding to rat striatal membranes in competition experiments against 3H-spiperone, expressed as Ki. The arrangement: species or system Striatum, Membrane.
D(2) dopamine receptor, sequence (P61169 whole entry): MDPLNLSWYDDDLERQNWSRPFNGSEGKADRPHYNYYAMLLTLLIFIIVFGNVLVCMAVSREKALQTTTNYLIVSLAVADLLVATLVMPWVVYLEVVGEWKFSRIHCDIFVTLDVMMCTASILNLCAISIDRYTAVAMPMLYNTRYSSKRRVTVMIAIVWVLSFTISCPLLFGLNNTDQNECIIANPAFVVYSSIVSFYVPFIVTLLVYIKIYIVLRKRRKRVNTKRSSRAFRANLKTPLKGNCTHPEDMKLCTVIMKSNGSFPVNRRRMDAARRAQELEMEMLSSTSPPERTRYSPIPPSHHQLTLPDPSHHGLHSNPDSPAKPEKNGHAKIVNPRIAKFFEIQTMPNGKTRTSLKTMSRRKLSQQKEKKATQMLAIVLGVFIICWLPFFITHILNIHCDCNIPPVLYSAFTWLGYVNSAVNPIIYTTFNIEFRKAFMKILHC
The target in data set [2] is T1, 5-hydroxytryptamine receptor 1A (Rattus norvegicus, UniProt P19327).
T1 sequence (P19327 whole entry): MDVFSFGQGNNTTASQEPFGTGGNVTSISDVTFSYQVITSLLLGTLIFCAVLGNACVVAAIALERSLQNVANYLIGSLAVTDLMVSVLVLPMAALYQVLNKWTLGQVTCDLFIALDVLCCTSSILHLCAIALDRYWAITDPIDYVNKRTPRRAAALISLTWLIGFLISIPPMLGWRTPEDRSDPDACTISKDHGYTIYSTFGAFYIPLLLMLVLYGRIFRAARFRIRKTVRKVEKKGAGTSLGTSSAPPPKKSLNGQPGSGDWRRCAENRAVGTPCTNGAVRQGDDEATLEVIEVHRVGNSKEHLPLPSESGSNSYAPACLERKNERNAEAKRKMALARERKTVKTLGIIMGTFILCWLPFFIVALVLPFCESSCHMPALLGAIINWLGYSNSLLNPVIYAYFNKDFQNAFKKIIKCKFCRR
Kind of data set: In vitro ability to displace serotonin 5-HT1A receptor binding to rat cerebral cortex in competition experiments against [3H]8-(hydroxy)dipropyl aminotetralin at 15 mg/kg concentration.

For data set [3], the target named is T2, Adrenergic receptor alpha-1 (Rattus norvegicus, UniProt P15823+P23944+P43140).
T2 sequence (P15823 whole entry): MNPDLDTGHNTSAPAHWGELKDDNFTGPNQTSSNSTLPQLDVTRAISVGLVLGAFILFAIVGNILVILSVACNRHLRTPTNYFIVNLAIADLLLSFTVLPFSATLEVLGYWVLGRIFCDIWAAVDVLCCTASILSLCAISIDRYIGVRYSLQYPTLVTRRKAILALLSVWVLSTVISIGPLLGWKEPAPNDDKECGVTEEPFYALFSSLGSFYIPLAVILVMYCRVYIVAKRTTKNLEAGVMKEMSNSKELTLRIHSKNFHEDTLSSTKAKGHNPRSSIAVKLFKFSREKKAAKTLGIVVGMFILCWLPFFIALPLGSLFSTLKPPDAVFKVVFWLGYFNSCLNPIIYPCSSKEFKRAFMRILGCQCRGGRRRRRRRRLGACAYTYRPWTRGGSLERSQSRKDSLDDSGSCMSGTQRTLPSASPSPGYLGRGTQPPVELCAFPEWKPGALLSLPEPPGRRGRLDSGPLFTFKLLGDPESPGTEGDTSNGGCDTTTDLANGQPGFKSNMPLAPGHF
T2 sequence (P23944 whole entry): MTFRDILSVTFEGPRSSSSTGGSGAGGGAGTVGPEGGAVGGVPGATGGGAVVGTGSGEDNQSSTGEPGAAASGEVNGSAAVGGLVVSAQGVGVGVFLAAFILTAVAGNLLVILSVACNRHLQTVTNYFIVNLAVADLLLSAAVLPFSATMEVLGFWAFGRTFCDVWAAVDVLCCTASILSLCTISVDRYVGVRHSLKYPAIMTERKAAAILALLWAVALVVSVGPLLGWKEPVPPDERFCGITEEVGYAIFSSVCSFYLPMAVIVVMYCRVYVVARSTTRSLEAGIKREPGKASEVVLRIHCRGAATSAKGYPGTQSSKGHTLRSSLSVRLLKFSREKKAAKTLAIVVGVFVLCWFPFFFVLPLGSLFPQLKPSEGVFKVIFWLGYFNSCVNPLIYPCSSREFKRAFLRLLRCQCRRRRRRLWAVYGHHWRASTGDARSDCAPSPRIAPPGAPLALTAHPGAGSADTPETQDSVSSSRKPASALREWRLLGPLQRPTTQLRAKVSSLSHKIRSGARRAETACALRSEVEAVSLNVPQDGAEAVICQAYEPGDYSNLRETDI
T2 sequence (P43140 whole entry): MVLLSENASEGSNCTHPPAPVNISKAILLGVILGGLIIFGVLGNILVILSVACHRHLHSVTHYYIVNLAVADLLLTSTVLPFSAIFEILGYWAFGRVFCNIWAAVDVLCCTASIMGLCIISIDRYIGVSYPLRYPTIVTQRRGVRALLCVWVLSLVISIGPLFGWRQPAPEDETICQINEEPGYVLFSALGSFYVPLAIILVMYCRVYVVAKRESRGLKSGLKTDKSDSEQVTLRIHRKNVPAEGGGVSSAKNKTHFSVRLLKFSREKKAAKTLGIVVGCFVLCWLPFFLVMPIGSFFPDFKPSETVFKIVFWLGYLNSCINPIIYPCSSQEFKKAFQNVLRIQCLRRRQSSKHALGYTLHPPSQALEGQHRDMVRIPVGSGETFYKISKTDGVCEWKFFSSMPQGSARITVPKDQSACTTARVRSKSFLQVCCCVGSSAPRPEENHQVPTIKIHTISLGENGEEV
Kind of data set: In vitro ability to displace Alpha-1 adrenergic receptor binding to rat cerebral cortex in competition experiments against [3H]prazosin […], expressed as Ki.

Data set [4] is filed under the species Canis familiaris. Kind of data set: Percent of radioactive dose in urine and feces excreted in 0-24 hr by dogs; NA is <10% inhibition at 1 uM for binding data. Particulars: dog, in vivo. Type of data set: ADME, organism-based, Canis lupus familiaris.
For data set [5], the system named is Rattus norvegicus. As to the kind of experiment: (§1) In vivo antipsychotic activity determined for dose ip by CAR (conditioned avoidance response) assay. Type of data set: functional. The arrangement: unit not given here.
For data set [6], the species on record is Canis familiaris. As to the kind of experiment: Percent of radioactive dose in urine and feces excreted by 0-24 hr in dogs. It counts as ADME, organism-based, Canis lupus familiaris. As to conditions: dog, in vivo.
Data set [7] is filed under the species Rattus norvegicus. As to the kind of experiment: Percent of radioactive dose in urine and feces excreted in 0-24 hr by rats. Type of data set: ADME, organism-based. Particulars: in vivo.
Data set [8] has as its target T3, 5-hydroxytryptamine receptor 1A (Rattus norvegicus) (UniProt P19327).
T3 sequence (whole entry): T1 sequence (P19327 whole entry)
Kind of data set: In vitro ability to displace serotonin 5-HT1A receptor binding to rat cerebral cortex in competition experiments against [3H]8-(hydroxy)dipropyl aminotetralin at 1 uM concentration. It counts as tissue-based.

The target in data set [9] is Adrenergic receptor alpha-1 (Rattus norvegicus) (UniProt P15823+P23944+P43140). As to the kind of experiment: In vitro ability to displace Alpha-1 adrenergic receptor binding to rat cerebral cortex in competition experiments against [3H]prazosin at 1 µM, expressed as % inhibition.
The target of data set [10] is D(2) dopamine receptor (Rattus norvegicus) (UniProt P61169). Kind of data set: In vitro ability to displace Dopamine D2 receptor binding to rat striatal membranes in competition experiments against [3H]spiperone at 1 uM concentration. Particulars: Striatum, Membrane.
D(2) dopamine receptor (Rattus norvegicus), sequence (P61169 whole entry): as the sequence (P61169 whole entry) above
Data set [11] has as its target T2, Adrenergic receptor alpha-1. As to the kind of experiment: In vitro ability to displace Alpha-1 adrenergic receptor binding to rat cerebral cortex in competition experiments against [3H]-prazosin, expressed as Ki.
For data set [12], the target named is T1, 5-hydroxytryptamine receptor 1A. As to the kind of experiment: In vitro ability to displace serotonin 5-HT1A receptor binding to rat cerebral cortex in competition experiments against [3H]8-(hydroxy)dipropyl aminotetralin at 1 mg/kg concentration.
For data set [13], the system named is Rattus norvegicus. The data set is described as §1. It counts as functional.
Data set [14] is filed under the species Rattus norvegicus. Kind of data set: Percent of radioactive dose in urine and faeces excreted in 0-24 hr by rats. Type of data set: ADME, organism-based, Urine/Feces. As to conditions: in vivo.
Data set [15] is filed under the species Canis familiaris. Kind of data set: Percent of radioactive dose in urine and faeces excreted in 0-24 hr by dogs. It counts as ADME, organism-based, Canis lupus familiaris, Urine/Feces. As to conditions: dog, in vivo.
The species entered for data set [16] is Canis familiaris. Kind of data set: Percent of radioactive dose in urine and feces excreted by 0-24 hr in dogs; NA is <10% inhibition at 1 uM for binding data. As to conditions: dog, in vivo. Type of data set: ADME, organism-based, Canis lupus familiaris.

Broadly, the Ki is the equilibrium dissociation constant of an inhibitor or competing ligand from its target. For the molecule `CC(C)Oc1ccccc1N1CCN(Cc2cccc(C(=O)N3CCCCC3O)c2)CC1` (stereo not given), the Dose in the data set filed under Rattus norvegicus [1] and in the data set listed under Canis familiaris [4] was less than 2% each time. In addition, the inhibition constant (Ki) at D(2) dopamine receptor was found to be 9 nM; in data set [2], 3 nM; in data set [3] it was 4 nM. Further, in the data set with Rattus norvegicus [5], the CAR is listed as -64.

Broadly, the inhibition is the percentage by which the read-out fell short of the control. `O=C(O)c1cccc(C(=O)N2CCCCC2)c1`: the Dose in the data set listed under Canis familiaris [6] was determined as 8%; in the data set filed under Rattus norvegicus [7], 11%. The inhibition in data set [8], in data set [9] and in data set [10] was less than 10% in each case. In the data set with Rattus norvegicus [5], this molecule returned a CAR of -3.

`CC(C)Oc1ccccc1N1CCN(Cc2cccc(C(=O)N3CCC(O)CC3)c2)CC1`: the Dose in the data set filed under Canis familiaris [6] and in the data set filed under Rattus norvegicus [7] was 3% throughout. The inhibitory constant (Ki) was determined as 3.6 nM in data set [11], 11 nM at D(2) dopamine receptor and 7.8 nM in [12]. The CAR in the data set on Rattus norvegicus [5] was -76.

With `CC(C)Oc1ccccc1N1CCN(Cc2cccc(C(=O)N3CCCCC3)c2)CC1` [MAZAPERTINE], the CAR in the data set with Rattus norvegicus [13] is -92. The Dose in the data set listed under Rattus norvegicus [14] came to 4%; in the data set listed under Canis familiaris [15], 5%.

Take `CC(C)Oc1ccccc1N1CCN(Cc2cccc(C(=O)N3CCCC(O)C3)c2)CC1` (stereo not given): the Dose in the data set filed under Rattus norvegicus [1] and in the data set listed under Canis familiaris [16] was less than 2% each time. Besides, the inhibition constant Ki was 8.8 nM on D(2) dopamine receptor, 6.8 nM in data set [2] and 21 nM in data set [3]. For the same molecule, in the data set on Rattus norvegicus [5], the CAR is on record as -96.

Consider `CC(C)Oc1cc(O)ccc1N1CCN(Cc2cccc(C(=O)N3CCCCC3)c2)CC1`, for which the Dose was determined as 3% in the data set listed under Canis familiaris [6] and 13% in the data set listed under Rattus norvegicus [7]. The CAR in the data set with Rattus norvegicus [5] is -10.
